Reference: the supplement of paper PMC10307832

Compound: NCC(=O)Nc1ccc(-n2nc(C(F)(F)F)cc2-c2ccc3c(ccc4ccccc43)c2)cc1 + CC1(C)CCC(c2ccc(Cl)cc2)=C(CN2CCN(c3ccc(C(=O)NS(=O)(=O)c4ccc(N[C@H](CCN5CCOCC5)CSc5ccccc5)c(S(=O)(=O)C(F)(F)F)c4)cc3)CC2)C1 [Navitoclax] (partner 0.5 µM)
Experiment: relative viability (nuclei count vs DMSO), 5 days (fraction); higher = more cells survive
Settings: first compound 0.06325 µM
How it was run: (§1)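 Relative viability divides the nuclei count in treated wells by that in vehicle wells. Lung cancer cell lines were seeded in 1536-well plates, dosed by pin tool the next day, and fixed and stained after 5 days in one step with final 0.05% Triton X-100, 1% formaldehyde and 1 ug/ml Hoechst. Dosing was a single drug or a fixed anchor-drug dose plus five library-drug doses (not always all listed) in √10 steps, and values are medians of duplicate plates imaged at 4×.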

Point of comparison: NCI-H1755, relative viability 1.04. Against it:
- NCI-H2023 — higher, 1.12
- HCC-15 — lower, 0.731
- NCI-H1793 — lower, 0.446
- PC-14 — lower, 0.979
- EKVX — lower, 0.969
- LC-2-ad — lower, 0.44
- NCI-H1944 — higher, 1.08
- NCI-H1975 — higher, 1.1
- RERF-LC-KJ — higher, 1.24
- PC-3 [JPC-3] — lower, 0.842

Same assay, conditions: first compound 0.2 µM

Point of comparison: EKVX, relative viability 1.07. Against it:
- NCI-H647 — higher, 1.23
- CAL-12T — higher, 1.37
- NCI-H1651 — higher, 1.13
- EPLC-272H — higher, 1.15
- NCI-H2228 — lower, 0.918
- NCI-H1792 — lower, 0.617
- NCI-H1355 — lower, 1
- NCI-H3122 — lower, 1.03
- NCI-H1437 — higher, 1.11
- NCI-H1755 — lower, 1.03
- NCI-H2023 — lower, 1.01
- HCC-15 — lower, 0.716
- NCI-H1793 — lower, 0.395
- PC-14 — higher, 1.15
- LC-2-ad — lower, 0.484
- NCI-H1944 — lower, 1.05
- NCI-H1975 — higher, 1.2
- RERF-LC-KJ — higher, 1.08
- PC-3 [JPC-3] — lower, 0.718

Same assay, conditions: first compound 0.6325 µM

Point of comparison: PC-14, relative viability 0.917. Against it:
- NCI-H647 — higher, 1.03
- CAL-12T — higher, 1.2
- NCI-H1651 — higher, 0.998
- EPLC-272H — higher, 1
- NCI-H2228 — higher, 0.976
- NCI-H1792 — lower, 0.693
- NCI-H1355 — higher, 0.999
- NCI-H3122 — higher, 1.01
- NCI-H1437 — higher, 1.12
- NCI-H1755 — higher, 1.03
- NCI-H2023 — higher, 1
- HCC-15 — lower, 0.716
- NCI-H1793 — lower, 0.411
- EKVX — higher, 0.971
- LC-2-ad — lower, 0.492
- NCI-H1944 — higher, 1.04
- NCI-H1975 — higher, 1.11
- RERF-LC-KJ — lower, 0.715
- PC-3 [JPC-3] — lower, 0.84

Same assay, conditions: first compound 2 µM

Point of comparison: NCI-H3122, relative viability 0.984. Against it:
- NCI-H647 — higher, 1.01
- CAL-12T — higher, 1.34
- NCI-H1651 — higher, 1.01
- EPLC-272H — higher, 1.09
- NCI-H2228 — lower, 0.809
- NCI-H1792 — lower, 0.617
- NCI-H1355 — lower, 0.978
- NCI-H1437 — higher, 1.11
- NCI-H1755 — higher, 0.991
- NCI-H2023 — higher, 1.01
- HCC-15 — lower, 0.693
- NCI-H1793 — lower, 0.416
- PC-14 — higher, 1.05
- EKVX — higher, 1.03
- LC-2-ad — lower, 0.535
- NCI-H1944 — higher, 1.07
- NCI-H1975 — higher, 0.997
- RERF-LC-KJ — lower, 0.842
- PC-3 [JPC-3] — lower, 0.79

Compound: NCC(=O)Nc1ccc(-n2nc(C(F)(F)F)cc2-c2ccc3c(ccc4ccccc43)c2)cc1 + Cc1nc(NC(=O)N2CCC[C@H]2C(N)=O)sc1-c1ccnc(C(C)(C)C(F)(F)F)c1 [Alpelisib] (partner 2 µM)
Experiment: as above
Settings: first compound 0.02 µM
How it was run: as §1

Point of comparison: PC-14, relative viability 1.04. Against it:
- NCI-H647 — higher, 1.31
- CAL-12T — higher, 1.2
- NCI-H1651 — lower, 0.927
- EPLC-272H — higher, 1.06
- NCI-H2228 — lower, 0.785
- NCI-H1792 — lower, 0.67
- NCI-H1355 — lower, 0.781
- NCI-H3122 — lower, 0.852
- NCI-H1437 — lower, 0.944
- NCI-H1755 — lower, 0.913
- NCI-H2023 — lower, 0.606
- HCC-15 — lower, 0.879
- NCI-H1793 — lower, 0.682
- EKVX — lower, 0.939
- LC-2-ad — higher, 1.07
- NCI-H1944 — lower, 0.865
- NCI-H1975 — lower, 0.668
- RERF-LC-KJ — lower, 0.848
